Read-outs that look alike come from different tables or passages of the source.
Legend:
[1] = tested on: HIV-1IIIB; assay: HIV-1 cytoprotection (CPE reduction) antiviral assay; assay type: cell-based; conditions: for inhibition at 10 µM: read-out: CPE reduction %
Protocol: (§1) The antiviral activity of newly synthesized analogues of chemotype 7 was evaluated against HIV-1IIIB in CEM-SS cells using an assay based on viral cytopathic effect (CPE). In this assay, the reduction of CPE was used to indicate the antiviral activity of a compound.
Briefly virus and cells were mixed in the presence of test compound and incubated for 6 days. […] Each assay plate contained cell control wells (cells only), virus control wells (cells plus virus), compound toxicity control wells (cells plus compound only), compound colorimetric control wells (compound only) as well as experimental wells (compound plus cells plus virus). Cytoprotection and compound cytotoxicity were assessed by MTS (CellTiter® 96 Reagent, Promega, Madison Wis.) and the EC50 (concentration inhibiting virus replication by 50%), CC50 (concentration resulting in 50% cell death) and a calculated TI (therapeutic index CC50/EC50) were provided. Each assay included AZT as a positive control.

[2] = tested on: CEM-SS cells; assay: Compound cytotoxicity (MTS) in the HIV cytoprotection assay; assay type: cell-based; conditions: for Cell viability %: 10 μM, CEM-SS cells; for CC50: Concentration resulting in 50% cell death
Protocol: as §1
Briefly virus and cells were mixed in the presence of test compound and incubated for 6 days. […] Each assay plate contained cell control wells (cells only), virus control wells (cells plus virus), compound toxicity control wells (cells plus compound only), compound colorimetric control wells (compound only) as well as experimental wells (compound plus cells plus virus). […] Each assay included AZT as a positive control.

[3] = biological target: T1, HIV-1 integrase (Human immunodeficiency virus type 1 group M subtype B, UniProt P04585); assay: HIV-1 integrase strand transfer (INST) assay; assay type: biochemical
T1 construct: HIV integrase was expressed and purified as previously reported; made in house; host or cells: Escherichia coli
Protocol: HIV integrase was expressed and purified as previously reported.^43 Inhibition assays were performed using a modified protocol of a reported method.^43 Briefly, 2.1 μL of compound suspended in DMSO was placed in duplicate into a Black 96 well non-binding plate (coming 3991). Compounds were plated in duplicate to a final concentration of 0.13-100 μM. To each well of the plate 186.9 μL of reaction mixture without DNA substrate was added (10 mM HEPES pH 7.5, 10% glycerol w/v, 10 mM MnCl2, 1 mM DTT, 1 μM integrase). The enzyme was incubated with inhibitor for 10 min at 25° C. after which the reaction was initiated by the addition of 21 μL of 500 nM oligo (5′ biotin […] annealed with […] 3′ Cy5). Reactions were incubated at 37° C. for 30 min and then quenched by the addition of 5.2 μL 500 mM EDTA. Each reaction was moved (200 μL) to a MultiScreen HTS PCR plate (Millipore MSSLBPC10) containing 20 μL streptavidin agarose beads (Life Technologies S951) and incubated with shaking for 30 min. A vacuum manifold was used to remove the reaction mixture and the beads were similarly washed 3 times with wash buffer (0.05% SDS, 1 mM EDTA in PBS). The plates were further washed 3 times with 200 μL 50 mM NaOH to denature DNA not covalently linked to the biotin modification. For each denaturation step the plate was incubated with shaking at 25° C. for 5 min and the NaOH was removed by centrifugation at 1000 g for 1 min. The reaction products were eluted from the beads by the addition of 150 μL formamide. The plate was incubated at 25° C. for 10 min and read directly at 635/675 in a SpectraMax i3 plate reader (Molecular Devices). Expression and purification of the recombinant IN in Escherichia coli were performed as previously reported^39, 44 with addition of 10% glycerol to all buffers. Preparation of oligonucleotide substrates has been described.^45 Integrase reactions were performed in 10 μL with 400 nM of recombinant IN, 20 nM of 5′-end [^32P]-labeled oligonucleotide substrate and inhibitors at various concentrations. Solutions of 10% DMSO without inhibitors were used as controls. Reactions were incubated at 37° C. (60 minutes) in buffer containing 50 mM MOPS, pH 7.2, 7.5 mM MgCl2, and 14.3 mM 2-mercaptoethanol. Reactions were stopped by addition of 10 μL of loading dye (10 mM EDTA, 98% deionized formamide, 0.025% xylene cyanol and 0.025% bromophenol blue). Reactions were then subjected to electrophoresis in 20% polyacrylamide-7 M urea gels. Gels were dried and reaction products were visualized and quantitated with a Typhoon 8600 (GE Healthcare, Little Chalfont, Buckinghamshire, UK). Densitometric analyses were performed using ImageQuant from Molecular Dynamics Inc. The concentrations at which enzyme activity was reduced by 50% (IC50) were determined using “Prism” software (GraphPad Software, San Diego, Calif.) for nonlinear regression to fit dose-response data to logistic curve models.

[4] = Human immunodeficiency virus 1, CEM-SS
[5] = Human immunodeficiency virus 1, 10 μM, HIV-1IIIB in CEM-SS cells
[6] = Human immunodeficiency virus 1, summary of Table 2, read-out: EC50

| SMILES | Cell viability % [2] [%] | inhibition at 10 µM [1, 5] [%] | IC50 ([3]; read-out: INST IC50) [nM] | other results |
| --- | --- | --- | --- | --- |
| O=C(NCc1ccccc1)c1c(Nc2ccccc2)[nH]c(=O)n(O)c1=O [Compound 7-i, N-Benzyl-1-(hydroxy)-1,2,3,6-tetrahydro-2,6-dioxo-4-(phenylamino)pyrimidine-5-carboxamide] | 21 |  |  | inhibition at 10 µM [1, 4]: 0% |
| O=C(NCc1ccccc1)c1c(Nc2ccc(-c3ccccc3)cc2)[nH]c(=O)n(O)c1=O [Compound 7-ii, N-Benzyl-1-(hydroxy)-1,2,3,6-tetrahydro-2,6-dioxo-4-(biphenylamino)pyrimidine-5-carboxamide] | 13 |  |  | inhibition at 10 µM [1, 4]: 0% |
| O=C(NCc1cccc(F)c1)c1c(Nc2ccc(-c3ccccc3)cc2)[nH]c(=O)n(O)c1=O [Compound 7-iii, N-(3-Fluorobenzyl)-1-(hydroxy)-1,2,3,6-tetrahydro-2,6-dioxo-4-(biphenylamino)pyrimidine-5-carboxamide] | 8.7 | 0 | > 100000 |  |
| O=C(NCc1ccc(F)cc1)c1c(Nc2ccc(-c3ccccc3)cc2)[nH]c(=O)n(O)c1=O [Compound 7-iv, N-(4-Fluorobenzyl)-1-(hydroxy)-1,2,3,6-tetrahydro-2,6-dioxo-4-(biphenylamino)pyrimidine-5-carboxamide] | 9.1 | 0 | > 100000 |  |
| O=C(NCc1ccccc1)c1c(NC2CC2)[nH]c(=O)n(O)c1=O [Compound 7-ix, N-Benzyl-1-(hydroxy)-4-(cyclopropylamino)-1,2,3,6-tetrahydro-2,6-dioxopyrimidine-5-carboxamide] | 90 | 98 | 209 ± 77 |  |
| CNc1[nH]c(=O)n(O)c(=O)c1C(=O)NCc1ccccc1 [Compound 7-v, N-Benzyl-1-(hydroxy)-1,2,3,6-tetrahydro-4-(methylamino)-2,6 dioxopyrimidine-5-carboxamide] | 98 | 100 | 80 ± 7 | EC50 ([1]; Human immunodeficiency virus 1): 830 nM; CC50 [2]: 58000 nM |
| CCNc1[nH]c(=O)n(O)c(=O)c1C(=O)NCc1ccccc1 [Compound 7-vi, N-Benzyl-1-(hydroxy)-4-(ethylamino)-1,2,3,6-tetrahydro-2,6-dioxopyrimidine-5-carboxamide] | 100 |  | 33 ± 4 | EC50 ([1]; Human immunodeficiency virus 1): 61 nM; inhibition at 10 µM [1, 4]: 100%; EC50 [1, 6]: 15 to 61 nM; CC50 [2]: 23000 nM; IC50 ([3]; read-out: IC50 (ST)): 21 to 77 nM |
| CCCNc1[nH]c(=O)n(O)c(=O)c1C(=O)NCc1ccccc1 [Compound 7-vii, N-Benzyl-1-(hydroxy)-1,2,3,6-tetrahydro-2,6-dioxo-4-(propylamino)pyrimidine-5-carboxamide] | 97 | 100 | 66 ± 16 |  |
| CC(C)Nc1[nH]c(=O)n(O)c(=O)c1C(=O)NCc1ccccc1 [Compound 7-viii, N-Benzyl-1-(hydroxy)-1,2,3,6-tetrahydro-4-(isopropylamino)-2,6-dioxopyrimidine-5-carboxamide] | 17 | 0 | 150 ± 34 | antiviral activity, in words ([1]; single concentration 10 μM, CPE assay): inactive; cytotoxicity, in words ([2]; single concentration 10 μM): cytotoxic |
| CC(C)(C)Nc1[nH]c(=O)n(O)c(=O)c1C(=O)NCc1ccccc1 [Compound 7-x, 4-(tert-Butylamino)-N-benzyl-1-(hydroxy)-1,2,3,6-tetrahydro-2,6-dioxopyrimidine-5-carboxamide] | 91 | 98 | 81 ± 15 |  |
| Nc1[nH]c(=O)n(O)c(=O)c1C(=O)NCc1ccccc1 [Compound 7-xi, 4-Amino-N-benzyl-1-(hydroxy)-1,2,3,6-tetrahydro-2,6-dioxopyrimidine-5-carboxamide] | 100 | 99 | 900 ± 290 |  |
| CNc1[nH]c(=O)n(O)c(=O)c1C(=O)NCc1cccc(F)c1 [Compound 7-xii, N-(3-Fluorobenzyl)-1-(hydroxy)-1,2,3,6-tetrahydro-4-(methylamino)-2,6-dioxopyrimidine-5-carboxamide] | 95 | 100 | 250 ± 48 |  |
| CNc1[nH]c(=O)n(O)c(=O)c1C(=O)NCc1ccc(F)cc1 [Compound 7-xiii, N-(4-Fluorobenzyl)-1-(hydroxy)-1,2,3,6-tetrahydro-4-(methylamino)-2,6-dioxopyrimidine-5-carboxamide] | 89 | 100 | 110 ± 21 |  |
| CNc1[nH]c(=O)n(O)c(=O)c1C(=O)NCc1cccc(Cl)c1F [Compound 7-xiv, N-(3-Chloro-2-fluorobenzyl)-1-(hydroxy)-1,2,3,6-tetrahydro-4-(methylamino)-2,6-dioxopyrimidine-5-carboxamide] | 100 | 100 | 110 ± 33 |  |
| CCNc1[nH]c(=O)n(O)c(=O)c1C(=O)NCc1cc(F)cc(F)c1 [Compound 7-xix, N-(3,5-Difluorobenzyl)-1-(hydroxy)-4-(ethylamino)-1,2,3,6-tetrahydro-2,6-dioxopyrimidine-5-carboxamide] | 100 | 100 | 230 ± 62 |  |
| CCNc1[nH]c(=O)n(O)c(=O)c1C(=O)NCc1cccc(F)c1 [Compound 7-xv, N-(3-Fluorobenzyl)-1-(hydroxy)-4-(ethylamino)-1,2,3,6-tetrahydro-2,6-dioxopyrimidine-5-carboxamide] | 90 | 100 | 68 ± 7 |  |
| CCNc1[nH]c(=O)n(O)c(=O)c1C(=O)NCc1ccc(F)cc1 [Compound 7-xvi, N-(4-Fluorobenzyl)-1-(hydroxy)-4-(ethylamino)-1,2,3,6-tetrahydro-2,6-dioxopyrimidine-5-carboxamide] | 99 |  | 49 ± 4 | EC50 ([1]; Human immunodeficiency virus 1): 33 nM; inhibition at 10 µM [1, 4]: 100%; EC50 [1, 6]: 15 to 61 nM; CC50 [2]: 19000 nM; IC50 ([3]; read-out: IC50 (ST)): 21 to 77 nM |
| CCCNc1[nH]c(=O)n(O)c(=O)c1C(=O)NCc1cccc(Cl)c1F [Compound 7-xxviii, N-(3-Chloro-2-fluorobenzyl)-1-(hydroxy)-1,2,3,6-tetrahydro-2,6-dioxo-4-(propylamino)pyrimidine-5-carboxamide] | 48 | 33 |  |  |
| CCNc1[nH]c(=O)n(OCc2ccccc2)c(=O)c1C(=O)N(C)Cc1ccc(F)cc1 [Compound 15, 3-(Benzyloxy)-6-(ethylamino)-N-(4-fluorobenzyl)-N-methyl-2,4-dioxo-1,2,3,4-tetrahydropyrimidine-5-carboxamide] |  |  | 7000 ± 3300 |  |
| O=C(NCc1ccccc1)c1c(O)n(O)c(=O)[nH]c1=O [Compound 16, N-Benzyl-1,6-dihydroxy-2,4-dioxo-1,2,3,4-tetrahydropyrimidine-5-carboxamide] |  |  | 37000 ± 21000 |  |
| O=C(NCc1ccc(F)cc1)c1c2n(c(=O)n(O)c1=O)CCCN2 [Compound 17, N-(4-Fluorobenzyl)-7-(hydroxy)-2,3,4,6,7,8-hexahydro-6,8-dioxo-1H-pyrimido[1,6-a]pyrimidine-9-carboxamide] |  |  | 430 ± 130 |  |

Source: US10117871B2, “3-hydroxypyrimidine-2,4-dione-5-carboxamides as potent inhibitors of HIV” (Regents of the University of Minnesota, priority 2015, dated 2018)
